This is an account of results in ChEMBL document CHEMBL3045662, “Synthesis of quinolactacide via an acyl migration reaction and dehydrogenation with manganese dioxide, and its insecticidal activities” (2006).

Activity calls are given as the source filed them. No cut-off for these calls is given here.

What is called mortality is the percentage killed.

The test system of one test is Bemisia argentifolii. As to the kind of experiment: Insecticidal activity against Bemisia argentifolii assessed as mortality at 500 ppm. It is filed as functional, organism-based.
Test [1] has as its system Frankliniella occidentalis. The test is described as follows: Insecticidal activity against Frankliniella occidentalis (western flower thrips) assessed as mortality at 500 ppm. It is filed as functional, organism-based.
The next test has as its system Tetranychus urticae. As to the kind of experiment: Insecticidal activity against Tetranychus urticae (two-spotted spider mite) in primary leaf stage of bean plant assessed as mortality at 500 ppm after 2 days. It is filed as functional. As to conditions: 48 h.
In the next test the test system is Spodoptera litura. As to the kind of experiment: Insecticidal activity against Spodoptera litura assessed as mortality at 500 ppm. It is filed as functional, organism-based.
The next test relates to Plutella xylostella. The test is described as follows: Insecticidal activity against third-instar larvae of Plutella xylostella (diamondback moth) in six-leaf stage of cabbage plant assessed as mortality at 500 ppm sprayed over two excised leaf squares after 2 days. It counts as functional. As to conditions: 48 h.

For `O=C1c2c([nH]c3ccccc3c2=O)-c2cccn21` [QUINOLACTACIDE], the mortality result (with Bemisia argentifolii; in test [1]; in the test with Spodoptera litura) was “inactive” throughout. The mortality at 500 ppm with Tetranychus urticae was 42%; in the test on Plutella xylostella, 100%.
